Experimental data published in PMC4109950, “Novel Small Molecule XPO1/CRM1 Inhibitors Induce Nuclear Accumulation of TP53, Phosphorylated MAPK and Apoptosis in Human Melanoma Cells” (PLoS ONE, 2014).

Columns and labels:
[1] = Body weight of tumor-bearing mice during oral treatment; assay type: in vivo, NOD/SCID mice; conditions: oral treatment three times weekly, KPT-276 75 mg/kg or KPT-330 15 mg/kg, n = 6
Description: All animal studies were conducted under a protocol (2009A0178-R1) approved by The Ohio State University Institutional Animal Care and Use Committee (IACUC). A subcutaneous (s.c.) tumor model of melanoma was employed to determine whether treatment with the orally bioavailable SINE compounds, KPT-276 (preclinical tool compound) or KPT-330 (currently in Phase 1 studies in humans with advanced cancers), would be effective in decreasing tumor growth in vivo. Female NOD/SCID mice (n = 6 mice/group; 6-8 weeks of age; Jackson Laboratory, Bar Harbor, ME) were injected subcutaneously (s.c.) in the right flank with 2×10^6 human A375 or CHL-1 melanoma cells (Day 0). Once tumors were palpable, mice were randomized to one of […] treatment groups: [a] diluent, [b] KPT-276 (75 mg/kg), or [c] KPT-330 (15 mg/kg). All treatments were administered via oral gavage in a volume of 200 µL three times weekly (Monday, Wednesday, Friday). Bi-dimensional tumor measurements were obtained three times weekly using microcalipers. Mice were euthanized and tumors were collected from all animals once diluent-treated tumors reached a volume of 1500 mm^3. […] The weights of all animals receiving diluent, KPT-276 or KPT-330 were monitored for dosing and to assess toxicity throughout the study.

[2] = tested on: CHL-1 xenografts; assay: Immunohistochemical staining of xenografts; assay type: in vivo, NOD/SCID mice; conditions: treated one week
Description: (§1) All animal studies were conducted under a protocol (2009A0178-R1) approved by The Ohio State University Institutional Animal Care and Use Committee (IACUC). A subcutaneous (s.c.) tumor model of melanoma was employed to determine whether treatment with the orally bioavailable SINE compounds, KPT-276 (preclinical tool compound) or KPT-330 (currently in Phase 1 studies in humans with advanced cancers), would be effective in decreasing tumor growth in vivo. Female NOD/SCID mice (n = 6 mice/group; 6-8 weeks of age; Jackson Laboratory, Bar Harbor, ME) were injected subcutaneously (s.c.) in the right flank with 2×10^6 human A375 or CHL-1 melanoma cells (Day 0). Once tumors were palpable, mice were randomized to one of […] treatment groups: [a] diluent, [b] KPT-276 (75 mg/kg), or [c] KPT-330 (15 mg/kg). All treatments were administered via oral gavage in a volume of 200 µL three times weekly (Monday, Wednesday, Friday). Bi-dimensional tumor measurements were obtained three times weekly using microcalipers. Mice were euthanized and tumors were collected from all animals once diluent-treated tumors reached a volume of 1500 mm^3. For histology studies, a subset of animals (n = 2–3/group) were treated with diluents, KPT-276, or KPT-330 for one week, after which tumors were collected to avoid necrosis. The weights of all animals receiving diluent, KPT-276 or KPT-330 were monitored for dosing and to assess toxicity throughout the study.
(§2) For analysis of XPO1 expression in human samples, an unstained (5 µm) slide of a commercially available tissue microarray (1 mm cores) containing 56 cases of primary melanoma, 20 cases of metastatic melanoma, and 24 cases diagnosed as nevus (US Biomax, Inc., Catalog #ME1004a) was subjected to immunohistochemical analysis using an antibody targeting XPO1 (Santa Cruz H-300, sc-5595, lot # D0110) according to manufacturer's recommendations (1∶50). For mouse studies, tumor xenografts were fixed in formalin, embedded in paraffin, a sectioned at 4 µm with two sections per slide. […] All samples were analyzed in a blinded fashion by an experienced pathologist (Dr. Krista La Perle). Automatic quantification of immunoreactivity in viable portions of xenograft tissue samples and tissue cores segmented with the TMA Lab (Aperio Technologies, Vista, CA) was performed on whole slide images scanned at 40× magnification (ScanScope XT, Aperio Technologies) using the Positive Pixel Count Algorithm in the ImageScope software, as well as the Color Deconvolution and Cytoplasmic algorithms available in the Image Analysis Toolbox (Aperio Technologies).

[3] = tested on: A375 xenografts; assay: Immunohistochemical staining of xenografts; assay type: in vivo, NOD/SCID mice; conditions: treated one week
Description: as §1, §2

[4] = tested on: CHL-1; assay: Apoptosis via Annexin V/PI staining, flow cytometry; assay type: cell-based; conditions: Homo sapiens, CHL-1, 72 hr treatment
Description: (§3) Phosphatidyl serine exposure was assessed in tumor cells and melanocytes by flow cytometry using APC-Annexin V and propidium iodide (PI; BD Pharmingen, San Diego, CA) as previously described. Each analysis was performed utilizing at least 10,000 events. We considered the Annexin V positive cells (early apoptosis) and Annexin V/PI double positive cells (late apoptosis) cells as the apoptotic cell population. The 4-parameter logistic or Hill model was the assumed dose-response relationship for the in vitro inhibition and cell viability experiments. Nonlinear least squares regression was used to estimate the model parameters and generate 95% confidence intervals for the IC50 estimates. For in vivo experiments, tumor volumes were first log-transformed to meet test assumptions of normality and homoscedasticity. Changes in tumor volumes were analyzed using a two-sample t-test to evaluate the difference from first day of treatment to the last for A375 xenografts (day 17), and from day 1 to day 10 for CHL-1 xenografts as day 10 marks the first mouse sacrificed when 1500 mm^3 tumor volume was reached. ANOVA was used to compare the expression of XPO1 staining among samples from the melanoma tissue core array. The Wilcoxon rank-sum test was used to analyze data comparing growth inhibition and apoptosis of the five metastatic melanoma cell lines to the three melanocyte cell lines.

[5] = tested on: A375; assay: as above; assay type: cell-based; conditions: Homo sapiens, A-375, A375, 72 hr treatment
Description: as §3

[6] = set-up: method as in personal communication, Karyopharm Therapeutics, Inc.; conditions: CD1 mice, oral, 10 mg/kg; ref personal communication, Karyopharm Therapeutics, Inc.; cited from earlier work
[7] = tested on: CHL-1; assay: Cellular growth assay (MTS), 72 h; assay type: cell-based, human
Description: (§4) Cells were seeded in 96-well plates (2×10^4) in triplicate and allowed to adhere overnight. Fresh media containing KPT-185, KPT-185-trans, KPT-276, or KPT-330 was added to each well at various concentrations (range = 40–10240 nM) and cells were incubated at 37°C/5% CO2 for 72 hours. Cells treated with DMSO (diluent) and untreated cells served as controls. At this time, the percentage of cell growth was evaluated using the MTS assay (CellTiter 96 AQueous Non-Radioactive Cell Proliferation Assay, Promega) and quantified by determining the optical density at 595 nm using a Bio-Rad iMark™ microplate reader. The 4-parameter logistic or Hill model was the assumed dose-response relationship for the in vitro inhibition and cell viability experiments. Nonlinear least squares regression was used to estimate the model parameters and generate 95% confidence intervals for the IC50 estimates. For in vivo experiments, tumor volumes were first log-transformed to meet test assumptions of normality and homoscedasticity. Changes in tumor volumes were analyzed using a two-sample t-test to evaluate the difference from first day of treatment to the last for A375 xenografts (day 17), and from day 1 to day 10 for CHL-1 xenografts as day 10 marks the first mouse sacrificed when 1500 mm^3 tumor volume was reached. ANOVA was used to compare the expression of XPO1 staining among samples from the melanoma tissue core array. The Wilcoxon rank-sum test was used to analyze data comparing growth inhibition and apoptosis of the five metastatic melanoma cell lines to the three melanocyte cell lines.

[8] = tested on: A375; assay: Cellular growth assay (MTS), 72 h; assay type: cell-based, human; conditions: Homo sapiens, A-375, 72 h, A375, 72 hr treatment, read-out: Growth Inhibition IC50
Description: as §4

[9] = tested on: human CHL-1 melanoma xenografts; assay: Subcutaneous melanoma xenograft tumor growth; assay type: in vivo, NOD/SCID mice; conditions: CHL-1 xenograft, oral gavage three times weekly, KPT-276 75 mg/kg (p = 0.0087) or KPT-330 15 mg/kg (p = 0.0002)
Description: as §1
as §3, with “The” for “Phosphatidyl serine exposure was assessed in tumor cells and melanocytes by flow cytometry using APC-Annexin V and propidium iodide (PI; BD Pharmingen, San Diego, CA) as previously described. Each analysis was performed utilizing at least 10,000 events. We considered the Annexin V positive cells (early apoptosis) and Annexin V/PI double positive cells (late apoptosis) cells as the apoptotic cell population. The”

[10] = tested on: human A375 melanoma xenografts; assay: Subcutaneous melanoma xenograft tumor growth; assay type: in vivo, NOD/SCID mice; conditions: oral gavage three times weekly, KPT-276 75 mg/kg or KPT-330 15 mg/kg, p<0.0001 for both
Description: as §1
as §3, with “The” for “Phosphatidyl serine exposure was assessed in tumor cells and melanocytes by flow cytometry using APC-Annexin V and propidium iodide (PI; BD Pharmingen, San Diego, CA) as previously described. Each analysis was performed utilizing at least 10,000 events. We considered the Annexin V positive cells (early apoptosis) and Annexin V/PI double positive cells (late apoptosis) cells as the apoptotic cell population. The”

[11] = tested on: A375 and CHL-1 cell lines; assay: Immunoblot of TP53, CDKN1A after etoposide; assay type: cell-based, human; conditions: 20 µM etoposide, 24 hours
Description: Human melanoma cell lines were seeded in 6-well plates (2×10^5) and allowed to adhere overnight. After treatment for various time points, the cells were harvested then fractionated using NE-PER Nuclear and Cytoplasmic Extraction Reagents from Thermo Scientific following the manufacturer's protocol. Nuclear and cytoplasmic fractions were validated via immunoblot analysis using Lamin B and GAPDH antibodies.
Immunoblots were prepared as previously described and probed with antibodies specific for TP53, CDKN1A (p21), XPO1, HDM2 (MDM2), Lamin B (Santa Cruz Biotechnology, Santa Cruz, CA), pMAPK, PARP (Cell Signaling Technology), GAPDH or β-actin (Sigma). Following incubation with the appropriate horseradish peroxidase-conjugated secondary antibody, immune complexes were detected using the ECL Plus detection kit (Amersham Biosciences, Ayesbury, UK).
Supplementary file pone.0102983.s001.tif: Figure S1 Localization of TP53, CDKN1A, and pMAPK in melanoma cell lines with etoposide. A375 and CHL-1 cell lines were treated with 20 µM of etoposide and harvested after 24 hours of treatment. Lysates were evaluated via immunoblot analysis. Lamin B and GAPDH serve as loading controls for nuclear and cytoplasmic compartments respectively. The data shown are representative of 2 to 3 independent biological experiments. (TIF) Click here for additional data file.

IC50 [4] [nM]	IC50 [5] [nM]	IC50 [8] [nM]	SMILES	Body weights of mice during treatment [1]	Ki67 staining [2]	TP53 expression (IHC) ([2]; high basal expression)	Ki67 staining [3]	Levels of nuclear TP53 and pMAPK (IHC) ([3]; n = 3 vs 2)	Bioavailability [6] [%]	Level at Tmax [6]	Tmax [6] [min]	IC57 value (cytostatic effect) ([7]; CHL-1, 72 hours) [µM]	Tumor growth vs diluent [9]	Tumor growth vs diluent [10]	TP53 upregulation and downstream activation of CDKN1A [11]	IC50 ([7]; Homo sapiens, CHL-1, 72 hr treatment, read-out: Growth Inhibition IC50) [nM]
6130	233	321	O=C(/C=C\n1cnc(-c2cc(C(F)(F)F)cc(C(F)(F)F)c2)n1)N1CC(F)(F)C1 [KPT-276]	remained constant	No significant changes	did not change	No significant changes	trend towards increased levels	> 90	roughly 2.5 micromolar	60	3.8794	significantly inhibited growth	significantly inhibited growth	–	–
–	–	–	COc1cc([C@@H]2c3cc4c(cc3[C@@H](O[C@@H]3O[C@@H]5CO[C@@H](C)O[C@H]5[C@H](O)[C@H]3O)[C@H]3COC(=O)[C@H]23)OCO4)cc(OC)c1O [etoposide, Etoposide]	–	–	–	–	–	–	–	–	–	–	–	induced TP53 upregulation	–
7690	112	120	O=C(/C=C\n1cnc(-c2cc(C(F)(F)F)cc(C(F)(F)F)c2)n1)NNc1cnccn1 [KPT-330]	remained constant	–	–	–	–	~60	roughly 2.5 micromolar	30	–	significantly inhibited	significantly inhibited	–	7530
